Assay results from PMC5323433 (The pharmacogenomics journal, 2016).

Columns and labels:
[1] = Steady-state plasma exemestane concentration two hours after dosing; format: in vivo, human; conditions: for Relative % change per variant allele (95% CI): additive model
[2] = cited from earlier work
breast cancer = conditions: letrozole compared to placebo in 352 minority patients, p=0.53; cited from earlier work
[3] = CYP3A4*22 rs35599367, oral 25 mg/day, 2 h post-dose

## C=C1C[C@@H]2[C@H](CC[C@]3(C)C(=O)CC[C@@H]23)[C@@]2(C)C=CC(=O)C=C12 [exemestane]
[1]; 1st Tertile (CrCl > 108.5 mL/min), 2 h post-dose
  Median Exemestane Concentration: 5.9 ng/mL
[1]; 2nd CrCl tertile vs 1st tertile (reference)
  Relative % Change Compared with Reference (95% Confidence Interval): +42.9% (8.3%–88.5%)
[1]; 2nd Tertile (83.0 < CrCl ≤ 108.5), 2 h post-dose
  Median Exemestane Concentration: 8.6 ng/mL
[1]; 3rd CrCl tertile vs 1st tertile (reference)
  Relative % Change Compared with Reference (95% Confidence Interval): +51.1% (14.5%–99.5%)
[1]; 3rd Tertile (CrCl ≤ 83.0 mL/min), 2 h post-dose
  Median Exemestane Concentration: 8.0 ng/mL
[1]; AKR1C4 Leu311Val rs17134592
  Relative % change per variant allele (95% CI): −8% (−25%, 13%)
[1]; AKR7A2 A142T rs1043657
  Relative % change per variant allele (95% CI): −1% (−22%, 26%)
[1]; Age, per year increase
  Relative % Change (95% Confidence Interval): +0.8% (−0.4%, 2%)
[1]; BMI, per unit increase
  Relative % Change (95% Confidence Interval): −1.5% (−3%, 0%)
[1]; Black vs White (reference)
  Relative % Change Compared with Reference (95% Confidence Interval): −32.2% (−52.1%–−4.0%)
[1]; CYP1A1 15:74724835 rs2606345
  Relative % change per variant allele (95% CI): 0% (−13%, 15%)
[1]; CYP1A1*2 rs4646903
  Relative % change per variant allele (95% CI): +16% (−7%, 46%)
[1]; CYP1B1 2:38080367 rs162555
  Relative % change per variant allele (95% CI): 6% (−11%, 26%)
[1]; CYP1B1 Ala119Ser rs1056827
  Relative % change per variant allele (95% CI): −1% (−15%, 16%)
[1]; CYP1B1 Arg48Gly rs10012
  Relative % change per variant allele (95% CI): −4% (−18%, 12%)
[1]; CYP3A4*1G rs2242480
  Relative % change per variant allele (95% CI): −4% (−20%, 15%)
[1]; [3]
  Median Concentration (range), Heterozygous: 10.7 (2.8 – 72.0) ng/mL
  Median Concentration (range), Homozygous Wild-type: 7.7 (2.5 – 42.2) ng/mL
[1]; CYP4A11 −845A/G rs9332978
  Relative % change per variant allele (95% CI): +14% (−15%, 51%)
[1]; LLOQ 2.5 ng/mL, 26 of 246 patients
  Patients with concentration <LLOQ: 10.6%
[1]; Sample Collection Time 1 month, 2 h post-dose
  Median Exemestane Concentration: 6.0 ng/mL
[1]; Sample Collection Time 3 month, 2 h post-dose
  Median Exemestane Concentration: 8.0 ng/mL
[1]; elevated aminotransferases Yes vs No (reference)
  Relative % Change Compared with Reference (95% Confidence Interval): +42.9% (0.6%, 103%)
[1]; per unit increase in BMI
  Decrease in exemestane concentration per unit increase in BMI: 1.5%
[2]; hepatic impairment based on Child-Pugh grade
  Greater exemestane exposure in patients with hepatic impairment: 2–3 fold
[2]; renal impairment
  Greater exemestane exposure in patients with renal impairment: 2–3 fold

## N#Cc1ccc(C(c2ccc(C#N)cc2)n2cncn2)cc1 [letrozole]
Breast cancer
  Disease free survival hazard ratio: 1.39
